Assay results reported in patent US20240101570A1 (AMGEN INC., priority 2020, published 2024).

Key:
[1] = system: HCT116 WT cells; assay: HCT116 WT cell proliferation / viability (CellTiter-Glo, 6 days); assay type: cell-based; conditions: Homo sapiens, HCT-116, 144 h, HCT116 WT cells, 6 days, CellTiter-Glo; read-out: HCT-116 WT IC50
In short: (§1)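 IC50 values derive from sigmoidal dose-response fits, some with Hill slope fixed at −1 and top constrained to 100%, others from 4-parameter logistic models. They reflect CellTiter-Glo viability after 6 days of compound exposure at up to 10 or 50 μM.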

[2] = system: HCT116 MTAP null cells; assay: HCT116 MTAP null cell proliferation / viability (CellTiter-Glo, 6 days); assay type: cell-based; conditions: HCT116-MTAP null, 144 h, HCT116 MTAP null cells, 6 days, CellTiter-Glo; read-out: HCT-116 MTAP null IC50
In short: as §1

Row | Compound | IC50 [1] [nM] | IC50 [2] [nM]
1 | COC[C@@H](C)N(Cc1ccc(Br)nn1)C(=O)c1ccc2nc(N)c3c(c2c1)CO[C@@H]3C [Example 468, (3R)-4-amino-N-((6-bromo-3-pyridazinyl)methyl)-N-((2R)-1-methoxy-2-propanyl)-3-methyl-1,3-dihydrofuro[3,4-c]quinoline-8-carboxamide] | 208 | 8
2 | CCN(C(=O)c1ccc2nc(N)c3c(c2c1)COC3)[C@H](C)c1ccc(C#N)cc1 (single isomer, unassigned) [Example 835] | 3760 | 126
3 | C[C@H]1OCc2c1c(N)nc1cnc(C(=O)N(Cc3ccc(C(F)(F)F)nn3)C3CC3)cc21 [Example 405, (3R)-4-amino-N-cyclopropyl-3-methyl-N-((6-(trifluoromethyl)-3-pyridazinyl)methyl)-1,3-dihydrofuro[3,4-c][1,7]naphthyridine-8-carboxamide] | > 10000 | 362
4 | CC(C)N(Cc1ccc(C2CC2)cn1)C(=O)c1cc2c3c(c(N)nc2cc1F)COC3 [Example 371, 4-amino-N-((5-cyclopropyl-2-pyridinyl)methyl)-7-fluoro-N-(2-propanyl)-1,3-dihydrofuro[3,4-c]quinoline-8-carboxamide] | 288 | 10
5 | CC(C)N(C(=O)c1cc2c3c(c(N)nc2cc1Cl)COC3)[C@H](C)c1ccc(C(F)(F)F)cn1 (single isomer, unassigned) [Example 845] | 2240 | 105
6 | CN(Cc1ccc(Cl)cn1)C(=O)c1ccc2nc(N)c3cnn(C)c3c2c1 [Example 523, 4-amino-N-((5-chloro-2-pyridinyl)methyl)-N,1-dimethyl-1H-pyrazolo[4,3-c]quinoline-8-carboxamide] | 6790 | 72
7 | C[C@H]1OCc2c1c(N)nc1cnc(C(=O)N(Cc3ccc(C(F)(F)F)cn3)C3CC3)cc21 [Example 315, (3R)-4-amino-N-cyclopropyl-3-methyl-N-((5-(trifluoromethyl)-2-pyridinyl)methyl)-1,3-dihydrofuro[3,4-c][1,7]naphthyridine-8-carboxamide] | 11100 | 137
8 | C[C@@H](c1ccc(C(F)(F)F)nn1)N(C(=O)c1cc2c(cc1F)nc(N)c1cnn(C)c12)C1CC1 (single isomer, unassigned) [Example 877] | 44100 | 756
9 | CC(C)N(Cc1ccc(Cl)cn1)C(=O)c1ccc2nc(N)c3c(c2c1)COC3 [Example 717, 4-amino-N-((5-chloro-2-pyridinyl)methyl)-N-(2-propanyl)-1,3-dihydrofuro[3,4-c]quinoline-8-carboxamide] | 7760 | 609
10 | CCOc1ccc(CN(C(=O)c2cc3c4c(c(N)nc3cn2)COC4)C23CC(C2)C3)nn1 [Example 378, 4-amino-N-(bicyclo[1.1.1]pentan-1-yl)-N-((6-ethoxy-3-pyridazinyl)methyl)-1,3-dihydrofuro[3,4-c][1,7]naphthyridine-8-carboxamide] | 9430 | 294
11 | CN(Cc1ccc(C(F)(F)F)cn1)C(=O)c1cc2c(cn1)nc(N)c1cnn(C)c12 [Example 568, 4-amino-N,1-dimethyl-N-((5-(trifluoromethyl)-2-pyridinyl)methyl)-1H-pyrazolo[4,3-c][1,7]naphthyridine-8-carboxamide] | 5390 | 91
12 | Cn1ncc2c3cc(C(=O)N(Cc4ccc(C(F)(F)F)nn4)C4CCC4)c(F)cc3nc(N)c21 [Example 504, 4-amino-N-cyclobutyl-7-fluoro-3-methyl-N-((6-(trifluoromethyl)-3-pyridazinyl)methyl)-3H-pyrazolo[3,4-c]quinoline-8-carboxamide] | 1850 | 56
13 | CCN(Cc1ccc(OC(F)F)nn1)C(=O)c1ccc2nc(N)c3c(c2c1)COC3 [Example 723, 4-amino-N-((6-(difluoromethoxy)-3-pyridazinyl)methyl)-N-ethyl-1,3-dihydrofuro[3,4-c]quinoline-8-carboxamide] | 6020 | 157
14 | Cc1nn(C)c2c1c(N)nc1ccc(C(=O)N(Cc3ccc(C(F)(F)F)cn3)C(C)C)cc12 [Example 432, 4-amino-1,3-dimethyl-N-(2-propanyl)-N-((5-(trifluoromethyl)-2-pyridinyl)methyl)-1H-pyrazolo[4,3-c]quinoline-8-carboxamide] | 6390 | 203
15 | CC(C)N(Cc1cnc(C(F)(F)F)cn1)C(=O)c1cc2c3c(c(N)nc2cc1Cl)COC3 [Example 499, 4-amino-7-chloro-N-(2-propanyl)-N-((5-(trifluoromethyl)-2-pyrazinyl)methyl)-1,3-dihydrofuro[3,4-c]quinoline-8-carboxamide] | 4140 | 164
16 | CC(C)N(Cc1ccc(C#N)cn1)C(=O)c1cc2c3c(c(N)nc2cc1Cl)COC3 [Example 392, 4-amino-7-chloro-N-((5-cyano-2-pyridinyl)methyl)-N-(2-propanyl)-1,3-dihydrofuro[3,4-c]quinoline-8-carboxamide] | 1540 | 57
17 | C[C@H](c1ncccn1)N(Cc1ccc(C(F)(F)F)cn1)C(=O)c1cc2c3c(c(N)nc2cc1F)COC3 [Example 435, 4-amino-7-fluoro-N-((1R)-1-(2-pyrimidinyl)ethyl)-N-((5-(trifluoromethyl)-2-pyridinyl)methyl)-1,3-dihydrofuro[3,4-c]quinoline-8-carboxamide] | 65 | 14
18 | CN(Cc1ccc(C(F)(F)F)nc1F)C(=O)c1cc2c(cc1F)nc(N)c1cnn(C)c12 [Example 782, 4-amino-7-fluoro-N-((2-fluoro-6-(trifluoromethyl)-3-pyridinyl)methyl)-N,1-dimethyl-1H-pyrazolo[4,3-c]quinoline-8-carboxamide] | 7770 | 80
19 | CN(Cc1ccc(C(F)(F)F)cc1)C(=O)c1ccc2nc(N)c3cnn(C)c3c2c1 [Example 543, 4-amino-N,1-dimethyl-N-(4-(trifluoromethyl)benzyl)-1H-pyrazolo[4,3-c]quinoline-8-carboxamide] | 2010 | 57
20 | CCN(Cc1ccc(Cl)cn1)C(=O)c1ccc2nc(N)c3c(c2c1)CO[C@@H]3C [Example 421, (3R)-4-amino-N-((5-chloro-2-pyridinyl)methyl)-N-ethyl-3-methyl-1,3-dihydrofuro[3,4-c]quinoline-8-carboxamide] | 10000 | 116
21 | C[C@H](c1ncccn1)N(Cc1ccc(C#N)cn1)C(=O)c1cc2c3c(c(N)nc2cn1)COC3 [Example 606, (R)-4-amino-N-((5-cyanopyridin-2-yl)methyl)-N-(1-(pyrimidin-2-yl)ethyl)-1,3-dihydrofuro[3,4-c][1,7]naphthyridine-8-carboxamide] | 3700 | 263
22 | C[C@H](c1ncccn1)N(Cc1ccc(C(F)(F)F)nn1)C(=O)c1ccc2nc(N)c3c(c2c1)COC3 [Example 441, 4-amino-N-((1R)-1-(2-pyrimidinyl)ethyl)-N-((6-(trifluoromethyl)-3-pyridazinyl)methyl)-1,3-dihydrofuro[3,4-c]quinoline-8-carboxamide] | 204 | 12
23 | CN(Cc1ccc(S(F)(F)(F)(F)F)cc1)C(=O)c1cc2c(cc1F)nc(N)c1c2cnn1C [Example 515, 4-amino-7-fluoro-N,3-dimethyl-N-(4-(pentafluoro-lambda~6~- sulfanyl)benzyl)-3H-pyrazolo[3,4-c]quinoline-8-carboxamide] | 3350 | 80
